The values below come from patent EP0381913A1, “Benzohydroxamic-acid derivatives” (SANDOZ AG, priority 1988, dated 1990).

In this test the test system is weeds. Kind of test: greenhouse tests after either or both pre- and post-emergence application. Conditions: application rate corresponding to 0.25 kg/ha. Type of test: in vivo.

Protocol: In pre-emergence testing, small plastic greenhouse pots filled with dry soil are seeded with the various weed seeds. Twenty-four hours or less after the seeding, the pots are sprayed with water until the soil is wet and the test compounds formulated as aqueous emulsions of acetone solutions containing emulsifiers are sprayed at the indicated concentrations emulsifiers are sprayed on the surface of the soil. After spraying, the soil containers are placed in the greenhouse and provided with supplementary heat as required and daily or more frequent watering. The plants are maintained under these conditions for a period of from 14 to 21 days, at which time the conditions of the plants and the degree of injury to the plants is rated.
After spraying, the plants are placed in a greenhouse and watered daily or more frequently. Water is not applied to the foliage of the treated plants. The severity of the injury is determined 21 days after treatment and is rated.

Regarding `COC(=O)CON(C(C)=O)C(=O)c1c(Cl)ccc(Cl)c1OC` [Compound 1.12, Methyl N-acetyl-N-(3,6-dichloro-2methoxy)benzoylaminooxyacetate], the control of weeds result is on record as “substantial control of weeds”.
